Entries after “also recorded” stand apart in the source; their conditions may differ.
Key:
ERK and Akt activities [1] = assay: ERK and Akt activities in LK133A-Vec cells (EphA2 knockout); type: cell-based, mice
Experimental: (§1) Cells were plated in 24-well dishes at a density of 100,000 cells/well and grown for 24 hours prior to stimulation with appropriate compounds and ephrins for the given amounts of time. Compounds were prepared in DMSO at 500 times the final concentrations and 0.2% DMSO was used as vehicle control. Following treatment, cells were lysed directly in SDS Gel Loading Buffer and immunoblotted as described previously. Immunoprecipitation and immunofluorescence staining was performed as described. For immunoprecipitation, 300,000 cells/well were plated in 6-well dishes and lysed in modified RIPA Buffer (20 mM Tris-HCl pH 7.4, 20 mM NaF, 150 mM NaCl, 10% glycerol, 0.1% SDS, 0.5% DCA, 2 mM EDTA, 1% Triton X-100) following treatment. Either 10 μg of ephrin-A1-Fc, or […] of EphA2 mouse monoclonal antibody (Clone D7, Millipore) were used, and mouse IgG was used as a negative control for EphA2 IP.
(§2) To address this question, we utilized an immortalized liver epithelial cell line, LK133A, isolated from a hepatoma induced by DEN in EphA2 knockout mice. Retroviral vector was used to restore EphA2 expression in these cells (LK133A-A2), and cells transduced with an empty vector were used as control (LK133AVec).

endogenous EphA2 [2] = target: T1, endogenous EphA2 (Homo sapiens, UniProt P29317); assay: Activation of endogenous EphA2 in PC-3 cells (pEphA/B immunoblot); type: cell-based; set-up: host or cells: PC-3; settings: 30 minutes
Experimental: as §1
(§3) To determine whether the EphA2 agonist activity of doxazosin is cell-context specific, we evaluated the effects of doxazosin on additional cell types. We first utilized HEK 293 cells overexpressing EphA2 (HEK 293-A2) that we described previously. […] Next we tested PC-3 cells that express high levels of endogenous EphA2 receptor. […] We next evaluated the time-course of activation in both MDA-231-A2 and HEK 293-A2 cells upon treatment with a single 50 μM dose of doxazosin.

ERK1/2 and Akt = assay: Inhibition of ERK1/2 and Akt activation in A172-A2 cells; type: cell-based; settings: 50 μM and 100 μM
Experimental: as §1
(§4) Activation of EphA2 receptor by ephrin-A1 ligand inhibits both ERK1/2 and Akt kinase activities in most normal cells and a subset of cancer cells. […] We first tested this by utilizing the A172 glioma cells engineered to overexpress EphA2 receptor (A172-A2).

EphA3 = target: T2, EphA3 (Homo sapiens, UniProt P29320); assay: EphA3 activation in HEK 293 cells overexpressing EphA3; type: cell-based; settings: HEK 293 overexpressing EphA3, compared to EphA2 and EphA4
T2 construct: expressed in transfected cells; host or cells: HEK 293
T2 sequence (P29320 21-983): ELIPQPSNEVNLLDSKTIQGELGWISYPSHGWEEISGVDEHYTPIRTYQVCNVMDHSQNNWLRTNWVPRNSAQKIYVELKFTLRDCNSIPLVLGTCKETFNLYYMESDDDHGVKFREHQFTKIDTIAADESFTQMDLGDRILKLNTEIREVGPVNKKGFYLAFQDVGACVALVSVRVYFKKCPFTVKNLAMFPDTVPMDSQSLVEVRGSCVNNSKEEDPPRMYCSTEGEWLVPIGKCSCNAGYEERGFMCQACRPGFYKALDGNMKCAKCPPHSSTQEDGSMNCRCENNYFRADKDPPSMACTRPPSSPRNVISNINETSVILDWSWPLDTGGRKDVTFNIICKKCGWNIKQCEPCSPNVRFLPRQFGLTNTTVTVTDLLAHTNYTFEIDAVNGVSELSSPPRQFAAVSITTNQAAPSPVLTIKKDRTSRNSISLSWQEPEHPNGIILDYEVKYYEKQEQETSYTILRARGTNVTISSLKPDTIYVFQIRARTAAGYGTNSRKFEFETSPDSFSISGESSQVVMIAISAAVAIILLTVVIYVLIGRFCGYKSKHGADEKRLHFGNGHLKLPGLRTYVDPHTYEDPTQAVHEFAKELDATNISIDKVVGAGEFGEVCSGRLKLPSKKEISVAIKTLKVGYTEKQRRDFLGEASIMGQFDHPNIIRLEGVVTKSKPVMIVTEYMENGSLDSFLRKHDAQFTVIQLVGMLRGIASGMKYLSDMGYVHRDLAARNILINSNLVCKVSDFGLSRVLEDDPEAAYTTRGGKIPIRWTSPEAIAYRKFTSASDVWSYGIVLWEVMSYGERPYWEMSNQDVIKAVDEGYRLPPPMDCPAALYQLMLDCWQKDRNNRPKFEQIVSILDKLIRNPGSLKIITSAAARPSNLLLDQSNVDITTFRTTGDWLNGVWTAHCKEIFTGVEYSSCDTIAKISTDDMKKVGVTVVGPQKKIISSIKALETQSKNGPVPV
Experimental: Cells were plated in 24-well dishes at a density of 100,000 cells/well and grown for 24 hours prior to stimulation with appropriate compounds and ephrins for the given amounts of time. Compounds were prepared in DMSO at 500 times the final concentrations and 0.2% DMSO was used as vehicle control. Following treatment, cells were lysed directly in SDS Gel Loading Buffer and immunoblotted as described previously. […] For immunoprecipitation, 300,000 cells/well were plated in 6-well dishes and lysed in modified RIPA Buffer (20 mM Tris-HCl pH 7.4, 20 mM NaF, 150 mM NaCl, 10% glycerol, 0.1% SDS, 0.5% DCA, 2 mM EDTA, 1% Triton X-100) following treatment. Either 10 μg of ephrin-A1-Fc, or 4 mg of EphA2 mouse monoclonal antibody (Clone D7, Millipore) were used, and mouse IgG was used as a negative control for EphA2 IP. […] For this purpose, HEK 293 cell lines overexpressing EphA1, EphA2, EphA3, EphA4, and EphB3 kinases were utilized.

EphA2 [3] = target: T3, EphA2 (Homo sapiens, UniProt P29317); assay: EphA2 activation in HEK 293-A2 cells (pEphA/B immunoblot); type: cell-based; set-up: expressed in transfected cells
Experimental: as §1, §3

endogenous EphA2 [4] = target: T1, endogenous EphA2; assay: EphA2 internalization in parental MDA-MB-231 cells (immunofluorescence, Example 1); type: cell-based; set-up: host or cells: MDA-MB-231 (parental); settings: 50 μM, two hours
Experimental: as §1
Similar to other receptor tyrosine kinases, activation of the EphA2 receptor by its ligand, ephrin-A1, results in receptor internalization and eventual degradation. […] This was first performed using the U373 glioma cell line engineered to overexpress EphA2.

EphA2 [5] = target: T3, EphA2; assay: EphA2 activation in A172-A2 glioma cells; type: cell-based; set-up: expressed in transfected cells
Experimental: as §1, §4

ERK and Akt activities [6] = assay: ERK and Akt activities in LK133A-A2 cells (EphA2 restored); type: cell-based, mice
Experimental: as §1, §2

T3 sequence (P29317 24-976): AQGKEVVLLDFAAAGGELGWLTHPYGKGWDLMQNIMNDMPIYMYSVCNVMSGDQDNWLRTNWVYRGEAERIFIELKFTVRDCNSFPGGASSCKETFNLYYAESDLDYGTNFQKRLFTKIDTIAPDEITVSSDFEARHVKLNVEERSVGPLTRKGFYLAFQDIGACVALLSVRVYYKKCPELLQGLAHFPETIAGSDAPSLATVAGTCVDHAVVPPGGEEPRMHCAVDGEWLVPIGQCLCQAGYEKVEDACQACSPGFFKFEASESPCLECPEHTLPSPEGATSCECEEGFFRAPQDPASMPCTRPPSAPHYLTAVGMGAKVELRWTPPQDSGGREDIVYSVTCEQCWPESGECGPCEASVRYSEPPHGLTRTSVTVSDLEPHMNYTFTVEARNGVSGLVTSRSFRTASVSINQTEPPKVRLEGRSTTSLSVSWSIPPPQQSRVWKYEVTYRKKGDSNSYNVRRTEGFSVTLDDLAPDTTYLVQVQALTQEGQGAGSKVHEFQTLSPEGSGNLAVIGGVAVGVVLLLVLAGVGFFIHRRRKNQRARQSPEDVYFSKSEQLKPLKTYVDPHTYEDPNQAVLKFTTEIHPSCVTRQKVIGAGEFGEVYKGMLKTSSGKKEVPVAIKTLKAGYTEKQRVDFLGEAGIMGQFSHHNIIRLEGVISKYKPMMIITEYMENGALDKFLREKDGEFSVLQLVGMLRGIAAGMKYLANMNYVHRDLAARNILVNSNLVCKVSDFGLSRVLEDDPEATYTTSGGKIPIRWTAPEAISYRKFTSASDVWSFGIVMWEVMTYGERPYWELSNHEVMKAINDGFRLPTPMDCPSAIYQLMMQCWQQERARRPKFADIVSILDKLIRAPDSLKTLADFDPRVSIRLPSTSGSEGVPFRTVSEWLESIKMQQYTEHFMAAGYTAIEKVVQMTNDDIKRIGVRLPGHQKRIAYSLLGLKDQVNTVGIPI
T1 sequence (P29317 24-976): as above

COc1cc2nc(N3CCN(C(=O)C4COc5ccccc5O4)CC3)nc(N)c2cc1OC (centres unmarked) [Doxazosin, 2-[4-(2,3-Dihydro-1,4-benzodioxine-2-carbonyl)piperazin-1-yl]-6,7-dimethoxyquinazolin-4-amine]
effect on ERK and Akt activities in absence of EphA2 (ERK and Akt activities [1]): neither doxazosin nor ephrin-A1-Fc was able to inhibit ERK and Akt activities; also recorded: notable increase in ERK and Akt activation | concentration at which EphA2 activation becomes evident (endogenous EphA2 [2]): 50 µM | inhibition of Akt and ERK1/2 activation (ERK1/2 and Akt): significant inhibition of Akt and ERK1/2 activation | EphA3 activation (EphA3): activation of EphA3 was weak | concentration at which EphA2 activation starts (EphA2 [3]; HEK 293-A2 cells, 30 minutes): 25 µM | time at which EphA2 activation becomes evident (EphA2 [3]; HEK 293-A2 cells, single 50 μM dose): 10 min | EphA2 kinase activation (EphA2 [3]; HEK 293 overexpressing EphA2, 60 minutes): activated both EphA2 and EphA4 kinases following a similar dose-response relationship | EphA2 internalization (endogenous EphA2 [4]): caused significant internalization of the endogenous EphA2 | concentration at which EphA2 activation starts (EphA2 [5]; A172-A2 cells, 90 minutes): around 25 μM | EphA2 degradation (EphA2 [5]; A172 cells): degradation of EphA2 following doxazosin treatment | ERK and Akt inhibition after reintroduction of EphA2 (ERK and Akt activities [6]): restored ERK and Akt inhibition

From patent US11944624B2, “Peptide and small molecule agonists of EphA and their uses” (CASE WESTERN RESERVE UNIVERSITY, priority 2017, dated 2024)
